Laboratory results taken from ChEMBL document CHEMBL1122119.

Columns and labels:
[1] = target: T1, Adenylate cyclase (Rattus norvegicus) (UniProt D4A3N4+P26770+Q04400+P26769+Q03343+P40146+Q8CFM9+P21932); experiment: Ability (250 uM) to stimulate dopamine sensitive adenylate cyclase from rat corpus striatum in the presence of excess ATP; type: functional
[2] = target: T1, Adenylate cyclase (Rattus norvegicus); experiment: Ability (50 uM) to stimulate dopamine sensitive adenylate cyclase from rat corpus striatum in the presence of excess ATP; type: functional

Row | Cyclase stimulation [2] | Compound | Cyclase stimulation [1]
1 |  | CN1CCc2cc(O)cc3c2[C@@H]1Cc1ccc(O)c(O)c1-3 | 9%
2 | 48% | CN1CCc2cccc3c2[C@H]1Cc1ccc(O)c(O)c1-3 | 
3 |  | CN1CCc2cc(O)cc3c2[C@H]1Cc1ccc(O)c(O)c1-3 | 59%
4 | 58% | NCCc1ccc(O)c(O)c1 | 
